Source: patent US5854039A, “Transformation of pichia methanolica” (ZymoGenetics, Inc., priority 1997, dated 1998)

Tested on: P. methanolica cells (strain CBS6515), UV-mutagenized
Assay: Nystatin enrichment for auxotrophic mutants, titering for colony forming units
Type: cell-based, Pichia methanolica
Settings: 1 mg nystatin added to remainder of 500 ml culture in minimal broth, one additional hour with shaking, nystatin-treated versus control cells
Description: Large-scale mutagenesis was then carried out using a 2-second UV exposure to provide about 20% killing. Cells were plated at approximately 10^4 cells/plate onto eight YEPD plates that were supplemented with 100 mg/L each of uracil, adenine, and leucine, which were added to supplement the growth of potential auxotrophs having the cognate deficiencies. Following UV exposure the plates were wrapped in foil and incubated overnight at 30° C. The following day the colonies on the plates (~10^5 total) were resuspended in water and washed once with water. An amount of cell suspension sufficient to give an OD600 of 0.1-0.2 was used to inoculate 500 ml of minimal broth made with yeast nitrogen base without amino acids or ammonia, supplemented with 1% glucose and 400 μg/L biotin. The culture was placed in a 2.8 L baffled Bell flask and shaken vigorously overnight at 30° C. The following day the cells had reached an OD600 of ~1.0-2.0. The cells were pelleted and resuspended in 500 ml of minimal broth supplemented with 5 g/L ammonium sulfate. The cell suspension was placed in a 2.8 L baffled Bell flask and shaken vigorously at 30° C. for 6 hours. 50 ml of the culture was set aside in a 250-ml flask as a control, and to the remainder of the culture was added 1 mg nystatin to select for auxotrophic mutants (Snow, Nature 211:206-207, 1966). […]

C[C@@H]1[C@H](O)[C@@H](C)/C=C/C=C/CC/C=C/C=C/C=C/C=C/C(O[C@H]2O[C@H](C)[C@@H](O)[C@H](N)[C@@H]2O)CC2O[C@](O)(CC(O)C(O)CCC(O)CC(O)CC(O)CC(=O)O[C@H]1C)CC(O)C2C(=O)O (stereo partly shown) [nystatin]
decrease in the number of viable cells (factor): 10^4
